Laboratory results: publication PMC12735718, “Novel Adamantane–Sclareol Hybrids Exploit ROS Vulnerability to Overcome Multidrug-Resistance in Glioblastoma Cells” (Molecules, 2025)

Legend:
A-172 cells = assay: MTT cell viability assay, A-172; format: cell-based; conditions: Homo sapiens, 72 h treatment
Experimental: (§1) Cell viability was measured using the colorimetric MTT assay based on the reduction of MTT into formazan dye. Cell lines were seeded into 96-well cell culture plates (4000 cells/well) in appropriate medium. After overnight incubation, cells were treated with increasing concentrations of 1, 2, 3, 4, 5, and 6 (0.5, 1, 2, 4, and 8 µM). After 72 h treatment, MTT solution (4 mg/mL) was added and plates were incubated at 37 °C with 5% CO2 for 3 h. After incubation, formazan crystals were dissolved using 100 µL DMSO, resulting in a purple color. The absorbance was measured at 570 nm with a reference wavelength of 690 nm using an automated microplate reader (MultiskanSky, Thermo Scientific, USA). The IC50 values were determined by non-linear regression analysis in GraphPad Prism 8.0.2. software (GraphPad Software, Boston, MA, USA).

[1] = tested on: intracellular superoxide anion in U87 and U87-TxR cells; assay: Superoxide anion detection by DHE; format: cell-based, human; conditions: 4 µM, 24 h and 48 h
Experimental: The levels of ROS were measured in U87 and U87-TxR cells by flow cytometry. The production of superoxide anions was detected using DHE fluorescence dye, while production of H2O2 and peroxynitrite anions was detected using DHR fluorescence dye. Cells were seeded in 6-well plates (150,000 cell/well) and incubated overnight. The cells were then treated with compounds 2 or 5 (4 μM) for 24 h and 48 h. CDDP (10 μM) was used as a positive control. After the treatment period, the cells were stained with DHE or DHR for 30 min in the dark. Following incubation, cells were harvested with trypsinization and washed twice in cold phosphate buffer solution (PBS). Fluorescence was measured on a CytoFlex flow cytometer (Beckman Coulter, Indianapolis, IN, USA). Green fluorescence from the oxidized DHR dye was detected at 525 nm, while the red fluorescence from ethidium derived from DHE was detected at 585 nm. At least 10,000 events were assayed for each sample. The results were analyzed by CytExpert 2.4.0.28 software (Beckman Coulter, Indianapolis, IN, USA).

U87 cells = assay: MTT cell viability assay, U87; format: cell-based; conditions: Homo sapiens, U-87 MG, 72 h treatment
Experimental: as §1

[2] = tested on: TrxR (SH-SY5Y cell lysate); assay: Colorimetric detection of cell lysate TrxR activity (DTNB); format: biochemical, human; conditions: 50 µM, DTNB absorbance at 412 nm over 20 min
From the text: We further analyzed the potential of adamantane–sclareol hybrids to inhibit TrxR enzyme activity using a colorimetric assay for the detection of TrxR activity in cell lysates. This kinetic assay is based on the ability of TrxR to reduce its substrate 5,5ʹ-dithiobis(2-nitrobenzoic acid) (DTNB) to the yellow product 5-thio-2-nitrobenzoic acid (TNB) in the presence of NADPH. The absorbance of the produced TNB is considered equivalent to the enzymic activity of TrxR. In the kinetic assay, the absorbance of DTNB was measured over 20 min, resulting in a curve showing the dependence of absorbance on time.
TrxR enzyme activity in cell lysate was determined by the reduction of the TrxR substrate DTNB to the yellow product TNB in the presence of NADPH (Acros Organics, Thermo Fisher Scientific, Waltham, MA, USA). Lysate from human neuroblastoma SH-SY5Y cells was used for the TrxR assay. SH-SY5Y cells were grown to 80% confluence, washed twice with PBS, and detached using Hanks-based enzyme-free dissociation solution (Millipore, Billeri-ca, MA, USA). Collected cells were centrifuged at 2000 rpm for 3 min and rinsed in PBS buffer. After additional centrifugation, cells were lysed on ice using Lysis Buffer (50 mM Tris, 150 mM NaCl, 1 mM EDTA, 1% NP40, 0.1% SDS, 0.5% Na-deoxycholate, pH 7.8) containing protease inhibitor mix G (SERVA Electrophoresis GmbH, Heidelberg, Germany) and phosphatase inhibitor cocktail 3 (Sigma-Aldrich, Darmstadt, Germany). The cell lysates were centrifuged at 16,000× g for 15 min at 4 °C. The protein concentrations of the supernatants were determined using a Pierce^TM BCA protein assay kit (Thermo Fisher Scientific, Waltham, MA, USA). The reactions were run in 96-well plates, in a final volume of 100 μL, in 50 mM potassium phosphate buffer (pH 7.0) containing 50 μg of cell lysate proteins, 1 mM EDTA, 50 mM KCl, 0.2 mg/mL BSA, and 0.25 mM NADPH. […] Enzyme kinetics were monitored on an automated microplate reader (MultiskanSky, Thermo Fisher Scientific, Waltham, MA, USA) by measuring the increase in absorbance at 412 nm for 20 min. […]

[3] = Maximum tolerated dose testing; conditions: Rag1-/- (immunodeficient), mouse, in vivo, ip, male Rag1 mice; read-out: maximal tolerated dose (MTD)
Experimental: (§2) Male immunodeficient mice (Rag1^−/−), aged 4–8 weeks, were used for xenograft studies. A total of 1 × 10^6 U87 cells were injected subcutaneously into the rear axillary region to establish solid tumors. […] Maximum tolerated dose (MTD) testing for 5 was performed in 6- to 8-week-old male Rag1 mice using two animals per dose group. Compound 5 was administered i.p. at doses of 7 mg/kg, 12.5 mg/kg, 25 mg/kg, 50 mg/kg, 100 mg/kg, and 200 mg/kg. The carrier consisted of 10% (v/v) DMSO with 5% (v/v) Tween-80 and was diluted in 0.9% (w/v) NaCl. Animals were monitored for weight loss, changes in feeding or neurological signs, and any morbidity to identify the highest non-toxic dose. For efficacy studies, Rag1 mice were inoculated subcutaneously with 1 × 10^6 cells (mean starting weight ≈ 20 g); animals were then randomized into treatment groups. The compound 5 group (n = 5) received 7 mg/kg i.p. (two injections during the study period). Comparator groups included carrier control (n = 5). Compound 5 was formulated in the vehicle described above. The study was terminated when tumors in untreated mice reached approximately 11% of body weight. At termination, animals were euthanized and tumors were excised. Tumor volumes and body weights were recorded throughout the experiment and used to assess efficacy and tolerability.

[4] = tested on: subcutaneous xenografts of U87 cells; assay: Preliminary efficacy study, subcutaneous U87 xenografts; format: in vivo; conditions: 7 mg/kg, administered twice i.p.
Experimental: as §2

Structure (SMILES)	IC50 (A-172 cells) [µM]	intracellular superoxide anion levels (DHE) [1]	IC50 (U87 cells) [µM]	TrxR enzyme activity [2]	MTD [3] [mg/kg]	Body weight [4]	tumor growth ([4]; over 12 days)
CC1(C)CCC[C@]2(C)[C@@H](CC[C@@](C)(O)/C=C/c3ccc(CNCCCCCCCCNCC45CC6CC(CC(C6)C4)C5)s3)[C@](C)(O)CC[C@@H]12 [Compound 2]	2.05 ± 0.37	no significant changes	2.59 ± 0.068	do not inhibit TrxR enzyme activity	–	–	–
CC1(C)CCC[C@]2(C)[C@@H](CC[C@@](C)(O)/C=C/c3ccc(CNCCCCCCCCNCC45CC6CC(CC(C6)C4)C5)o3)[C@](C)(O)CC[C@@H]12 [Compound 5]	4.74 ± 0.129	no significant changes	5.13 ± 0.139	do not inhibit TrxR enzyme activity	25	not adversely affected	strongly inhibits tumor growth
